These compounds were tested on Achsel- und Fußschweiß. Details: 3 %ige Lösung in Alkohol/Wassergemisch.
Source text: Die Wirksamkeit der in der Beschreibung genannte Verbindungen wurde folgendermaßen ermittelt: • 1) Die Versuchspersonen, 10 männliche und 10 weibliche Probanden, benutzten zur Körperreinigung ein von bakteriziden und fungiziden Stoffen freies Duschbad. Die linke Achselhöhle und der linke Fuß, insbesondere die Partien zwischen den Zehen, wurden mit einem Präparat gemäß den Beispielen behandelt. Die rechte Achselhöhle und der rechte Fuß wurden nicht behandelt. Die Prüfung erfolgte nach 12 und 24 Stunden durch die Versuchsansteller, indem jeweils ein geruchsfreies Mullkissen aus 4 Lagen Verbandmull mit den behandelten und unbehandelten Stellen in intensive Berührung durch Reiben gebracht wurde. Anschließend prüften die Tester den Geruch der Kissen selbst. […] Sie wurden verpflichtet, kein anderes desodorierendes Präparat, sei es ein kosmetisches Spezialpräparat oder eine sogenannte "Deo-Seife" zu benutzen.

Row | Compound | Desodorierung des Achsel- und Fußschweißes
1 | CC(C)(CO)C(O)C(=O)NCCCO (centres unmarked) [Panthenol, N-Propanolamid der 1,3-Dihydroxy-2,2-Dimethylbuttersäure, reference compound] | befriedigende Desodorierung

Same assay, conditions: 3 bis 5 % in a deodorant preparation; time after application

Row | Compound | anhaltender Schutz vor der Bildung unangenehmer Zersetzungsprodukte des Achsel- und Fußschweißes
2 | CC(=O)NCCO [Essigsäuremonoethanolamid] | ≤ 24 Stunden

Same assay, conditions: 5 % in Alkohol/Wassergemisch; also in strongly perspiring persons

Row | Compound | Desodorierung des Achsel- und Fußschweißes
3 | CC(C)(CO)C(O)C(=O)NCCCO (centres unmarked) [Panthenol, N-Propanolamid der 1,3-Dihydroxy-2,2-Dimethylbuttersäure, reference compound] | optimal

Same assay, conditions: in vivo

Row | Hautfreundlichkeit | Compound
4 | hervorragender | CC(C)(CO)C(O)C(=O)NCCCO (centres unmarked) [Panthenol, N-Propanolamid der 1,3-Dihydroxy-2,2-Dimethylbuttersäure, reference compound]

Same assay, conditions: result in words; concentration not given

Row | Compound | desodorierende Wirksamkeit
5 | O=C1CC(=O)NC(=O)N1 [Malonylharnstoff(Barbitursäure), Malonylharnstoff] | Wirksam
6 | Ethanolamide der Bernsteinsäure | Erfolgreich getestet
7 | Ethanolamide der Weinsäure | Erfolgreich getestet
8 | Ethanolamide der Adipinsäure | Erfolgreich getestet
9 | CC(=O)NCC(=O)O [N-Acetylglycin (Acetursäure), N-Acetylglycin] | gute Wirkstoffe
10 | CCOC(N)=O [Urethan] | Wirksam
11 | Ethanolamide der Zitronensäure | Erfolgreich getestet
12 | O=C(O)CNC(=O)c1ccccc1 [Hippursäure] | Wirksam
13 | NC(N)=O [Harnstoff, reference compound] | mit bestem Erfolg
14 | CCC(=O)NCCO [Ethanolamide der Propionsäure] | Die gleiche Eigenschaft
15 | NC(=O)NC(N)=O [Biuret] | Wirksam
16 | Ethanolamide der Malonsäure | Erfolgreich getestet
17 | CC(=O)NCCO [Essigsäuremonoethanolamid] | besonders kräftiger Wirkstoff
18 | NC(=O)NCCO [ß-Hydroxiethylharnstoff] | Sehr wirksam
19 | Ethanolamide der Glutarsäure | Erfolgreich getestet
20 | CC(O)C(=O)NCCO (centres unmarked) [Ethanolamide der Milchsäure] | Die gleiche Eigenschaft

Source: patent publication EP0126483A2, “Deodorant” (Eduard Gerlach GmbH Chemische Fabrik, priority 1983, dated 1984)
